In patent US20240066136A1, “MODIFIED PROTEINS AND PROTEIN DEGRADERS” (Cullgen (Shanghai), Inc., priority 2020, published 2024):
Ends that are not written are not given here.

Target: Human DDB1 (Homo sapiens (Human), UniProt Q16531)
Test: Surface plasmon resonance (SPR) binding assay to immobilized His-DDB1
Details: not given
Procedure: The binding affinities of heterobifunctional compounds to DDB1 were determined by SPR assay. Purified His-DDB1 proteins were immobilized on a CM5 sensor chip, and a dose range of compound solutions were injected in multi-cycle kinetic format. Data were fit to steady state model and gave equivalent dissociation constants (KD).
Protein Expression and Purification. Human DDB1 (UniPro: Q16531) coding sequences were cloned into pFastBacHTB vector and were expressed in High5 cells using Bac-to-Bac baculovirus expression system (Thermo Fisher Scientific). […] DDB1 proteins were obtained from supernatant of cell lysates and purified through sequential application of Ni affinity (Ni-NTA column. Bio-Rad), and size-exclusion (Superdex 200 16/600GL column, GE Healthcare) column chromatography.
Surface plasmon resonance (SPR) binding assay. All SPR studies were performed on a Biacore X100 plus or T200 instrument (GE Healthcare). Immobilization of purified His-DDB1 was carried out at 25° C. using a CM5 sensor chip. The surface was pre-equilibrated in HBS-EP running buffer (10 mM HEPES, pH7.4, 150 mM NaCl, 3 mM EDTA, 0.05% P20), then activated with EDC/NHS. His-DDB1 proteins were immobilized by amine coupling to a density of 11,000-13,000 resonance units (RUs) on flow cell FC2, whereas flow cell FC1 was used as reference. Both DDB1 immobilized and reference surfaces were deactivated with 1M ethanolamine.
All interaction experiments were performed at 25° C. […] Compound Solutions were injected individually in multi-cycle kinetic format without regeneration (flow rate […], association time 120 s, dissociation time 120 s). Sensorgrams from reference surfaces and blank injections were subtracted from the raw data (double-referencing) and the data was solvent-corrected prior to analysis. All data were fit to steady state affinity model using Biacore Evaluation Software and gave equivalent dissociation constants (KD).

Chain of Human DDB1 (Q16531 whole entry): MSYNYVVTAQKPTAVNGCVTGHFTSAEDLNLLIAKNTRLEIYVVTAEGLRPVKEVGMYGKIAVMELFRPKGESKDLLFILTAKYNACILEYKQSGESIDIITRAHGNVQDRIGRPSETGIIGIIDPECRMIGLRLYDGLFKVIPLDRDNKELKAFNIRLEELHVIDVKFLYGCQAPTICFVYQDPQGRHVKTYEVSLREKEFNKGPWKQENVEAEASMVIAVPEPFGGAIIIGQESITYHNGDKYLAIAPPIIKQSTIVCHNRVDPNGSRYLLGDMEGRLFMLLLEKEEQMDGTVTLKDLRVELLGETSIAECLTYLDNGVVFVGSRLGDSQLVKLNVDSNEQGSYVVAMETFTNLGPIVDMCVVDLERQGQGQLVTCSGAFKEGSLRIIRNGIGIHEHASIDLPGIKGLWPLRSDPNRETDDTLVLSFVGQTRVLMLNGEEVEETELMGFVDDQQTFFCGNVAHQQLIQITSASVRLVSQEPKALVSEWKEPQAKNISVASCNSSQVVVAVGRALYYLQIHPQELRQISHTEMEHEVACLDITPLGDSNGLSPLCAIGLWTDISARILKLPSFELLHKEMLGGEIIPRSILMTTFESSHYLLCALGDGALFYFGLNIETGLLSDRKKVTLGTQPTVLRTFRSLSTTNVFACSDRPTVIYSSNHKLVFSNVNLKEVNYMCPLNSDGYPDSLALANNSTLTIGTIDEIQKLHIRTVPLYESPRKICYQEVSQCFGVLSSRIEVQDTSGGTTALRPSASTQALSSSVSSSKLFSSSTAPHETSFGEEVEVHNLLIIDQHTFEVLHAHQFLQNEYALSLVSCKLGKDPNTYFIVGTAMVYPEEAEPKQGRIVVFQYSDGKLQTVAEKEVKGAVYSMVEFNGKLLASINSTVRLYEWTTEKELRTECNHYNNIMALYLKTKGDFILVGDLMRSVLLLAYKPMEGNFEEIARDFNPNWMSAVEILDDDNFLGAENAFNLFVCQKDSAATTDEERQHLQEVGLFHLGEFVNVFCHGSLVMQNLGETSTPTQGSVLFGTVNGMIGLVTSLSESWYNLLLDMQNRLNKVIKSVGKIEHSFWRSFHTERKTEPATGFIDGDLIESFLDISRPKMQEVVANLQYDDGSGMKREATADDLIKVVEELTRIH

With SRLNRRASF [Peptide 7] the Kd was 20 to 100 µM.

Same assay, conditions: SPR, DDB1 binding moieties with linkers and/or target protein binding moiety; read-out: Binding (Kd)

`CC(=O)Nc1cc(NCCOCCOCCNC(=O)CN2CCN(c3ccc(Nc4ncc5c(C)c(C(C)=O)c(=O)n(C6CCCC6)c5n4)nc3)CC2)ccc1C(=O)Nc1nc(C)c([N+](=O)[O-])s1` [D-45, 2-Acetamido-4-((2-(2-(2-(2-(4-(6-((6-acetyl-8-cyclopentyl-5-methyl-7-oxo-7,8-dihydropyrido[2,3-d]pyrimidin-2-yl)amino)pyridin-3-yl)piperazin-1-yl)acetamido)ethoxy)ethoxy)ethyl)amino)-N-(4-methyl-5-nitrothiazol-2-yl)benzamide] and `CC(=O)Nc1cc(NCCOCCOCCOCCOCCNC(=O)CN2CCN(c3ccc(Nc4ncc5c(C)c(C(C)=O)c(=O)n(C6CCCC6)c5n4)nc3)CC2)ccc1C(=O)Nc1nc(C)c([N+](=O)[O-])s1` [D-47, 2-Acetamido-4-((1-(4-(6-((6-acetyl-8-cyclopentyl-5-methyl-7-oxo-7,8-dihydropyrido[2,3-d]pyrimidin-2-yl)amino)pyridin-3-yl)piperazin-1-yl)-2-oxo-6,9,12,15-tetraoxa-3-azaheptadecan-17-yl)amino)-N-(4-methyl-5-nitrothiazol-2-yl)benzamide] cannot be ordered by Kd: under 20 µM for the first, under 20 µM for the second.

In the case of `CC(=O)Nc1cc(NCCOCCOCCOCCOCCNC(=O)C[C@@H]2N=C(c3ccc(Cl)cc3)c3c(sc(C)c3C)-n3c(C)nnc32)ccc1C(=O)Nc1nc(C)c([N+](=O)[O-])s1` [D-35, (S)-2-Acetamido-4-((1-(4-(4-chlorophenyl)-2,3,9-trimethyl-6H-thieno[3,2-f][1,2,4]triazolo[4,3-a][1,4]diazepin-6-yl)-2-oxo-6,9,12,15-tetraoxa-3-azaheptadecan-17-yl)amino)-N-(4-methyl-5-nitrothiazol-2-yl)benzamide], the Kd is reported as 20 to 100 µM.

Same assay, conditions: SPR, steady state affinity model, 25° C.; read-out: Binding (DDB1 binder activities, Kd)

Compared with `CC(=O)Nc1ccccc1C(=O)Nc1nc(Cl)c([N+](=O)[O-])s1` [B-29, 2-Acetamido-N-(4-chloro-5-nitrothiazol-2-yl)benzamide], `CC(=O)Nc1ccccc1C(=O)Nc1ncc([N+](=O)[O-])s1` [B-4, 2-Acetamido-N-(5-nitrothiazol-2-yl)benzamide] is lower in Kd: 20 to 100 µM for the first, under 20 µM for the second.

`CCCCNc1ccc(NC(C)=O)c(C(=O)Nc2ncc([N+](=O)[O-])s2)c1` [B-149, 2-Acetamido-5-(butylamino)-N-(5-nitrothiazol-2-yl)benzamide] and `CCCCNc1ccc(C(=O)Nc2ncc([N+](=O)[O-])s2)c(OCC)c1` [B-160, 4-(Butylamino)-2-ethoxy-N-(5-nitrothiazol-2-yl)benzamide] fall in the same range of Kd: 20 to 100 µM for the first, 20 to 100 µM for the second.

First: CCCC(=O)Nc1cccc(OC(=O)CCC)c1C(=O)Nc1ncc([N+](=O)[O-])s1 [B-25, 3-Butyramido-2-((5-nitrothiazol-2-yl)carbamoyl)phenyl butyrate]
Second: CCCC(=O)Nc1ccc(C(=O)Nc2ncc([N+](=O)[O-])s2)c(OC(C)=O)c1 [B-21, 5-Butyramido-2-((5-nitrothiazol-2-yl)carbamoyl)phenyl acetate]
The Kd of the first is lower: 20 to 100 µM for the first, over 100 µM for the second. The first binds more tightly here.

Compared with `Cc1cc(N2CCOCC2)ccc1C(=O)Nc1ncc([N+](=O)[O-])s1` [B-162, 2-Methyl-4-morpholino-N-(5-nitrothiazol-2-yl)benzamide], `Cc1ccc(C(=O)Nc2ncc([N+](=O)[O-])s2)c(C)c1` [B-172, 2,4-Dimethyl-N-(5-nitrothiazol-2-yl)benzamide] is lower in Kd: over 100 µM for the first, 20 to 100 µM for the second. The second binds more tightly here.

`CN(CCc1ccccc1)C1CCCN(C(=O)CCc2nc3ccccc3[nH]2)C1` (stereo not shown) [B-139, 3-(1H-benzo[d]imidazol-2-yl)-1-(3-(methyl(phenethyl)amino)piperidin-1-yl)propan-1-one] and `O=C(Nc1ncc([N+](=O)[O-])s1)c1ccccc1-c1ccccc1` [B-86, N-(5-Nitrothiazol-2-yl)-[1,1′-biphenyl]-2-carboxamide] cannot be ordered by Kd: under 20 µM for the first, under 20 µM for the second.

Going from `CNC(=O)c1ccccc1C(=O)Nc1ncc([N+](=O)[O-])s1` [B-5, N^1-Methyl-N^2-(5-nitrothiazol-2-yl)phthalamide] to `CCOc1ccccc1C(=O)Nc1ncc([N+](=O)[O-])s1` [B-7, 2-Ethoxy-N-(5-nitrothiazol-2-yl)benzamide], the Kd falls from over 100 µM to under 20 µM. The second binds more tightly here.

`CC(=O)Oc1cccc(C)c1C(=O)Nc1ncc([N+](=O)[O-])s1` [B-170, 3-Methyl-2-((5-nitrothiazol-2-yl)carbamoyl)phenyl acetate] and `COc1ccc(C(=O)Nc2ncc([N+](=O)[O-])s2)c(C)c1` [B-156, 4-Methoxy-2-methyl-N-(5-nitrothiazol-2-yl)benzamide] cannot be ordered by Kd: over 100 µM for the first, over 100 µM for the second.

Compared with `Cc1ccc(C)c(C(=O)Nc2ncc([N+](=O)[O-])s2)c1` [B-174, 2,5-Dimethyl-N-(5-nitrothiazol-2-yl)benzamide], `O=C(Nc1ncc([N+](=O)[O-])s1)c1ccccc1` [B-3, N-(5-Nitrothiazol-2-yl)benzamide] is higher in Kd: under 20 µM for the first, 20 to 100 µM for the second.

`CC(=O)Nc1ccccc1C(=O)Nc1ccncc1` [B-121, 2-Acetamido-N-(pyridin-4-yl)benzamide] and `CC(=O)Nc1ccccc1C(=O)Nc1ccc(Cl)cc1` [B-58, 2-Acetamido-N-(4-chlorophenyl)benzamide] fall in the same range of Kd: 20 to 100 µM for the first, 20 to 100 µM for the second.

Compared with `CCCCNc1ccc(C(=O)Nc2nc(Cl)c([N+](=O)[O-])s2)c(-c2ccccc2)c1` [B-112, 5-(Butylamino)-N-(4-chloro-5-nitrothiazol-2-yl)-[1,1′-biphenyl]-2-carboxamide], `CCCCNc1ccc(C(=O)Nc2nc(C)c([N+](=O)[O-])s2)c(-c2ccccc2)c1` [B-111, 5-(Butylamino)-N-(4-methyl-5-nitrothiazol-2-yl)-[1,1′-biphenyl]-2-carboxamide] is higher in Kd: under 20 µM for the first, 20 to 100 µM for the second. The first binds more tightly here.

First: CC(=O)Oc1cc(NC2CCOCC2)ccc1C(=O)Nc1ncc([N+](=O)[O-])s1 [B-96, 2-((5-Nitrothiazol-2-yl)carbamoyl)-5-((tetrahydro-2H-pyran-4-yl)amino)phenyl acetate]
Second: O=C(Nc1ccccc1C(=O)Nc1ncc([N+](=O)[O-])s1)c1ccccc1 [B-63, 2-Benzamido-N-(5-nitrothiazol-2-yl)benzamide]
The Kd of the first is lower: 20 to 100 µM for the first, over 100 µM for the second.

`CCCCNc1ccc(C(=O)Nc2ccc([N+](=O)[O-])s2)c(-c2ccccc2)c1` [B-135, 5-(Butylamino)-N-(5-nitrothiophen-2-yl)-[1,1′-biphenyl]-2-carboxamide] and `CCCCNc1ccc(C(=O)Nc2ncc(Br)s2)c(-c2ccccc2)c1` [B-117, N-(5-Bromothiazol-2-yl)-5-(butylamino)-[1,1′-biphenyl]-2-carboxamide] fall in the same range of Kd: 20 to 100 µM for the first, 20 to 100 µM for the second.

`CC(=O)Nc1ccccc1C(=O)Nc1ncc(C(C)C)s1` [B-43, 2-Acetamido-N-(5-isopropylthiazol-2-yl)benzamide] and `CC(=O)Nc1ccccc1C(=O)Nc1ccc(Br)cn1` [B-55, 2-Acetamido-N-(5-bromopyridin-2-yl)benzamide] fall in the same range of Kd: 20 to 100 µM for the first, 20 to 100 µM for the second.

`CC(Nc1nc(-c2ccco2)nc2c1CCNCC2)c1nnc(N)s1` (stereo not shown) [B-138, 5-(1-((2-(furan-2-yl)-6,7,8,9-tetrahydro-5H-pyrimido[4,5-d]azepin-4-yl)amino)ethyl)-1,3,4-thiadiazol-2-amine] and `O=C(Nc1ncc([N+](=O)[O-])s1)c1ccccc1C(F)(F)F` [B-89, N-(5-Nitrothiazol-2-yl)-2-(trifluoromethyl)benzamide] fall in the same range of Kd: 20 to 100 µM for the first, 20 to 100 µM for the second.

Work on `Cc1ccccc1C(=O)Nc1nccs1` [B-176, 2-Methyl-N-(thiazol-2-yl)benzamide] yielded a Kd of under 20 µM.

Same assay, conditions: read-out: Binding (DDB1 binder activities, Kd)

`CCCNC(=O)c1ccc(C(=O)Nc2ncc([N+](=O)[O-])s2)c(OC(C)=O)c1` [B-12, 2-((5-Nitrothiazol-2-yl)carbamoyl)-5-(propylcarbamoyl)phenyl acetate] showed a Kd of under 20 µM.
